The test system of experiment [1] is JMJD6^FL. The conditions noted are these: read-out: 2OG Km^app; standard hydroxylation assay conditions, 2OG varied 0–150 μM, 37 °C, HEPES-KOH pH 8.0; mean ± S.D. (n = 3). The protocol: (§1) JMJD6 activity was assayed using a reaction mixture of 10 μM purified JMJD6 and 100 μM substrate peptide, at 37 °C in 50 mM HEPES-KOH, pH 8.0, buffer supplemented with 100 μM (NH4)2Fe(SO4)2·6H2O (Sigma), 400 μM L-sodium ascorbate (Sigma), and 500 μM disodium 2OG (Fluka). After 30 min, the reaction was quenched by an equal volume of 1% (v/v) aqueous formic acid (Sigma). In a 96-well MALDI plate (Waters), 0.8 μl of CHCA (α-cyano-4-hydroxycinnamic acid, Aldrich) ([…] in 0.1 ml of CHCA solvent) and 0.6 μl of the quenched mixture were placed in a well. After drying, the samples were analyzed by MALDI-TOF MS using a reported procedure ([59], [60]). The kinetic data obtained thereafter were fitted using GraphPad Prism (GraphPad Software) ([59], [60]).

Experiment [2] deals with T1, JMJD6^Δ363–403 (Homo sapiens, UniProt Q6NYC1). The conditions noted are these: read-out: 2OG Km^app; standard hydroxylation assay conditions, 2OG varied 0–150 μM, 37 °C, HEPES-KOH pH 8.0; mean ± S.D. (n = 3). On the procedure: as §1
Experiment [3] concerns JMJD6^Δ344–403. The conditions noted are these: read-out: 2OG Km^app; standard hydroxylation assay conditions, 2OG varied 0–150 μM, 37 °C, HEPES-KOH pH 8.0; mean ± S.D. (n = 3). The protocol: as §1
In experiment [4] the test system is JMJD6^FL. Particulars: read-out: 2OG Km^app; reported for JMJD6^FL; ref Mantri et al. ([23]); cited from earlier work.
The target of experiment [5] is T1, JMJD6^Δ363–403. The experiment is described as follows: CPMG-edited NMR titration, apparent binding constant of 2OG. Set-up: two more variants (aa 1–362, JMJD6^Δ363–403, and aa 1–343, JMJD6^Δ344–403); His6 (N); made in house; host or cells: Escherichia coli Rosetta2(DE3). The conditions noted are these: CPMG-edited 1H NMR (700 MHz), 20 μM 2OG, 200 μM Zn(II), Tris-d11 pH 7.5, titrated with EDTA-treated JMJD6; mean ± S.D. (n = 3); read-out: 2OG KD^app. The protocol:
(§2) 20 μM 2OG and 200 μM Zn(II) were mixed in deuterated Tris-d11, pH 7.5, and the ^1H NMR signals for 2OG were recorded at 700 MHz ([39]). […] Typically, a 5–10% error was allowed in the curve-fitting process.
(§3) CPMG displacement experiments used a Bruker AV700 NMR machine, as reported previously ([39]). The PROJECT (Periodic Refocusing of J Evolution by Coherence Transfer)-CPMG sequence (90°x − (τ − 180°y − τ − 90°y − τ − 180°y − τ)n − acquisition) was applied ([56]). […] Water suppression was achieved by presaturation ([57], [58]).

Experiment [6] concerns the target JMJD6^FL. The description is as above. On the set-up: species or system human. Particulars: CPMG-edited 1H NMR (700 MHz), 20 μM 2OG, 200 μM Zn(II), Tris-d11 pH 7.5, titrated with EDTA-treated JMJD6; mean ± S.D. (n = 3); read-out: 2OG KD^app. On the procedure:
as §2, §3

Experiment [7] deals with JMJD6^Δ344–403. The experiment is described as above. On the set-up: species or system human. The conditions noted are these: CPMG-edited 1H NMR (700 MHz), 20 μM 2OG, 200 μM Zn(II), Tris-d11 pH 7.5, titrated with EDTA-treated JMJD6; mean ± S.D. (n = 3); read-out: 2OG KD^app. The protocol:
as §2, §3

The test system of experiment [8] is SAKcaC (stretch-activated BK channel). Nature of the experiment: Single-channel current recording of SAKcaC with GsMTx4 back-filled in the pipette. The format is cell-based, chick. The conditions noted are these: for Po of SAKcaC (amplitude histogram): 50 nM GsMTx4 in pipette, 25 min after onset of back-filling, chick ventricular myocytes, typical patch.
Experiment [9] deals with T1, JMJD6^Δ363–403. Nature of the experiment: Standard MS-based hydroxylation assay (MALDI-TOF MS) of substrate peptides. It counts as biochemical. On the set-up: two more variants (aa 1–362, JMJD6^Δ363–403, and aa 1–343, JMJD6^Δ344–403); His6 (N); made in house; host or cells: Escherichia coli Rosetta2(DE3). Particulars: JMJD6^Δ363–403, standard assay conditions, MALDI-TOF MS / LC-MS/MS.

The subject of the next experiment is JMJD2E (KDM4E). Nature of the experiment: MS-based demethylation assay, positive control for RDM activity. It counts as biochemical. The conditions noted are these: same conditions, MALDI-TOF MS / LC-MS/MS. On the procedure:
Reaction samples were thereafter analyzed by MALDI-TOF or LC-MS/MS.
Peptides were “trapped” on an in-house packed guard column (75-μm inner diameter × 20 mm, Acclaim PepMap® C18, 3 μm, 100 Å) using solvent A (0.1% (v/v) aqueous formic acid) at a pressure of 140 bar. Peptides were separated on an EASY-Spray Acclaim PepMap® analytical column (75 μm inner diameter × 15 mm, rapid separation liquid chromatography C18, 3 μm, 100 Å) using a linear gradient (length, 100 min; 3–60% solvent B (0.1% formic acid in acetonitrile), flow rate, 300 nl/min). The separated peptides were electro-sprayed directly into the spectrometer operating in a data-dependent mode using a collision-induced dissociation/electron transfer dissociation (CID/ETD)-based method. Full scan MS spectra (scan range 150–2000 m/z, resolution 30,000, AGC target 1 × 10^6, maximum injection time 250 ms) and subsequent CID MS/MS spectra (AGC target 3 × 10^4, maximum injection time 500 ms) of the 10 most intense peaks were acquired in the Orbitrap. CID fragmentation was performed at 35% of the normalized collision energy, and the signal intensity threshold was kept at 500 counts. ETD spectra (AGC cation target 5 × 10^4, AGC anion target 2 × 10^5, and cation maximum injection time 100 ms) were acquired in the ion trap. PEAKS® 8.0 (Bioinformatics Solutions, Inc., Waterloo, Canada) was used to analyze raw data. […]

The target in experiment [10] is T1, JMJD6^Δ363–403. The experiment is described as follows: Standard MS-based demethylation assay (MALDI-TOF, LC-MS/MS). The format is biochemical. On the set-up: two more variants (aa 1–362, JMJD6^Δ363–403, and aa 1–343, JMJD6^Δ344–403); His6 (N); made in house; host or cells: Escherichia coli Rosetta2(DE3). The conditions noted are these: JMJD6^Δ363–403, 37 °C, HEPES-KOH pH 8.0, MALDI-TOF MS / LC-MS/MS. The protocol: Peptides were “trapped” on an in-house packed guard column (75-μm inner diameter × 20 mm, Acclaim PepMap® C18, 3 μm, 100 Å) using solvent A (0.1% (v/v) aqueous formic acid) at a pressure of 140 bar. Peptides were separated on an EASY-Spray Acclaim PepMap® analytical column (75 μm inner diameter × 15 mm, rapid separation liquid chromatography C18, 3 μm, 100 Å) using a linear gradient (length, 100 min; 3–60% solvent B (0.1% formic acid in acetonitrile), flow rate, 300 nl/min). The separated peptides were electro-sprayed directly into the spectrometer operating in a data-dependent mode using a collision-induced dissociation/electron transfer dissociation (CID/ETD)-based method. Full scan MS spectra (scan range 150–2000 m/z, resolution 30,000, AGC target 1 × 10^6, maximum injection time 250 ms) and subsequent CID MS/MS spectra (AGC target 3 × 10^4, maximum injection time 500 ms) of the 10 most intense peaks were acquired in the Orbitrap. CID fragmentation was performed at 35% of the normalized collision energy, and the signal intensity threshold was kept at 500 counts. ETD spectra (AGC cation target 5 × 10^4, AGC anion target 2 × 10^5, and cation maximum injection time 100 ms) were acquired in the ion trap. PEAKS® 8.0 (Bioinformatics Solutions, Inc., Waterloo, Canada) was used to analyze raw data. The raw MS files were searched against the respective protein sequences. […]

Like-named read-outs stand apart in the source and are kept apart here. Ends that are not written are not given here.

For the molecule `O=C(O)CCC(=O)C(=O)O` [Peptide 2OG, 2-oxoglutarate], the Km in the experiment with JMJD6^FL [1] was 31 ± 5.3 µM; on JMJD6^Δ363–403 [2] it was 24 ± 5.4 µM; in the experiment with JMJD6^Δ344–403 [3] it was 45 ± 10 µM; with JMJD6^FL [4], 39 µM. Besides, the figures for the Kd on JMJD6^Δ363–403 [5], at JMJD6^FL [6] and at JMJD6^Δ344–403 [7] were 3000 ± 4800 nM, 2300 ± 1600 nM and 3500 ± 2100 nM, respectively.
As for “GsMTx4: inhibitor of stretch-activated BK channel (mismatched supplement) (GCLEFWWKCNPNDDKCCRPKLKCSKLFKLCNFSF; ends and bridges not checked; cysteine pairing not given here; UniProt Q7YT39 47-80, looked up)”, the “Po of SAKcaC (amplitude histogram)” value in experiment [8] (1 mM intracellular Ca2+) amounted to 35.5; in experiment [8] (–40 mV, 0.8 µM intracellular Ca2+), 14.2. The “Effect on stretch-activated BK channel and its single-channel conductance, result in words” value in experiment [8] (100 nM GsMTx4 in the pipette, 1 mM intracellular Ca2+, 30 min after onset of back-filling) was “inhibits stretch-activated BK channel without changing single-channel conductance”.
“SGR(me2s)GKGGKGLGKGGAKRHK-biotin [H4R3(me2s)1–18, histone 4 peptide with symmetrically di-methylated Arg3 and K-biotin]”: the “JMJD6-catalyzed hydroxylation (+16-Da mass shift), result in words” value at JMJD6^Δ363–403 [9] was “catalyzes hydroxylation”. Moreover, the “JMJD2E-catalyzed demethylation (−14 and −28 Da mass shifts), result in words” value in the experiment on JMJD2E (KDM4E) is “manifested demethylation”. Further, the “JMJD6-catalyzed demethylation (−14 or −28 Da mass shift), result in words” value at JMJD6^Δ363–403 [10] is given as “does not have RDM activity”.

Values taken from publication PMC6663879, “Biochemical and structural investigations clarify the substrate selectivity of the 2-oxoglutarate oxygenase JMJD6” (The Journal of Biological Chemistry, 2019).
